Data as given in article PMC10141580, “Cyclic Dichalcogenides Extend the Reach of Bioreductive Prodrugs to Harness Thiol/Disulfide Oxidoreductases: Applications to seco-Duocarmycins Targeting the Thioredoxin System” (ACS Central Science, 2023).
Read-outs that look alike come from different tables or passages of the source.

Tested on: panel of 140 standard cancer cell lines
Test: ProliFiler-140 cancer cell line screen (CellTiterGlo, 72 h)
Assay type: cell-based
Protocol: Incubations were performed for 72 h before automated viability readout with CellTiterGlo (Figure 8).
End of Figure S11 (part 5 of 5): ProliFiler-140 cancer cell line screening for cytotoxicity of the prodrugs.
8-data-point dose response curves from CellTiter-Glo® viability readout.
ProliFiler-140 cell line panel part V

In the case of `COc1cc2cc(C(=O)N3C[C@@H](CCl)c4c3cc(OC(=O)N3CCN(C(=O)CCC(=O)N5CCN(C)CC5)[C@H]5CSSC[C@H]53)c3ccccc43)[nH]c2c(OC)c1OC` [P-SS66C-CBI-TMI], the IC50 (read-out: IC50 [M] (ProliFiler-140), BxPC-3 (Pancreas)) is reported as 4.6e-08 M, the IC50 (read-out: IC50 [M] (ProliFiler-140), COR-L279 (Lung)) is reported as 7.23e-09 M and the IC50 (read-out: IC50 [M] (ProliFiler-140), COV434 (Ovary)) is reported as 1.48e-08 M. The IC50 (read-out: IC50 [M] (ProliFiler-140), Calu-6 (Lung)) was 5.9e-08 M, the IC50 (read-out: IC50 [M] (ProliFiler-140), Colo 205 (Colon)) was 8.61e-08 M and the IC50 (read-out: IC50 [M] (ProliFiler-140), DU-145 (Prostate)) was 1.62e-08 M. The IC50 (read-out: IC50 [M] (ProliFiler-140), EFM-19 (Breast)) was 3.12e-07 M, the IC50 (read-out: IC50 [M] (ProliFiler-140), EFO-27 (Ovary)) was 6.19e-08 M and the IC50 (read-out: IC50 [M] (ProliFiler-140), EPLC-272H (Lung)) was 4.6e-08 M. It also gave an IC50 (read-out: IC50 [M] (ProliFiler-140), H460 (Lung)) of 5.51e-09 M, an IC50 (read-out: IC50 [M] (ProliFiler-140), H1299 (Lung)) of 5.4e-08 M and an IC50 (read-out: IC50 [M] (ProliFiler-140), H2228 (Lung)) of 4.5e-08 M. It also gave an IC50 (read-out: IC50 [M] (ProliFiler-140), HCC202 (Breast)) of 9.13e-08 M, an IC50 (read-out: IC50 [M] (ProliFiler-140), HCC827 (Lung)) of 9.11e-08 M and an IC50 (read-out: IC50 [M] (ProliFiler-140), HEC-1-B (Endometrium)) of 3.99e-07 M. For the same compound, the IC50 (read-out: IC50 [M] (ProliFiler-140), HL-60 (Blood)) was 1.52e-08 M, the IC50 (read-out: IC50 [M] (ProliFiler-140), HT-29 (Colon)) was 1.05e-07 M and the IC50 (read-out: IC50 [M] (ProliFiler-140), HT-1080 (Fibrosarcoma)) was 2.1e-08 M. It also gave an IC50 (read-out: IC50 [M] (ProliFiler-140), HeLa (Ovary)) of 9.9e-09 M, an IC50 (read-out: IC50 [M] (ProliFiler-140), Hep3B2.1-7 (Liver)) of 1.72e-07 M and an IC50 (read-out: IC50 [M] (ProliFiler-140), Hs 746T (Stomach)) of 7.52e-08 M. It also gave an IC50 (read-out: IC50 [M] (ProliFiler-140), Hutu 80 (Duodenum)) of 9.6e-09 M, an IC50 (read-out: IC50 [M] (ProliFiler-140), Ishikawa (Endometrium)) of 3.84e-09 M and an IC50 (read-out: IC50 [M] (ProliFiler-140), J82 (Bladder)) of 9.6e-08 M. It also gave an IC50 (read-out: IC50 [M] (ProliFiler-140), JIMT-1 (Breast)) of 1.04e-07 M, an IC50 (read-out: IC50 [M] (ProliFiler-140), JVM-3 (Blood)) of 3.4e-09 M and an IC50 (read-out: IC50 [M] (ProliFiler-140), Jurkat (Blood)) of 6.2e-09 M. For the same compound, the IC50 (read-out: IC50 [M] (ProliFiler-140), K562 (Blood)) was 1.29e-07 M, the IC50 (read-out: IC50 [M] (ProliFiler-140), KG-1 (Blood)) was 1.9e-07 M and the IC50 (read-out: IC50 [M] (ProliFiler-140), LOU-NH91 (Lung)) was 3.45e-08 M. It also gave an IC50 (read-out: IC50 [M] (ProliFiler-140), LP-1 (Blood)) of 1.04e-07 M, an IC50 (read-out: IC50 [M] (ProliFiler-140), LnCap (Prostate)) of 2.75e-08 M and an IC50 (read-out: IC50 [M] (ProliFiler-140), MCF-7 (Breast)) of 3.05e-08 M. For the same compound, the IC50 (read-out: IC50 [M] (ProliFiler-140), MDA-MB-468 (Breast)) was 1.87e-08 M, the IC50 (read-out: IC50 [M] (ProliFiler-140), MEC-1 (Blood)) was 1.08e-08 M and the IC50 (read-out: IC50 [M] (ProliFiler-140), MKN-1 (Stomach)) was 1.38e-07 M. It also gave an IC50 (read-out: IC50 [M] (ProliFiler-140), MOLM-13 (Blood)) of 5.25e-09 M, an IC50 (read-out: IC50 [M] (ProliFiler-140), MOLT-4 (Blood)) of 8.62e-09 M and an IC50 (read-out: IC50 [M] (ProliFiler-140), MV4-11 (Blood)) of 1.54e-09 M. The IC50 (read-out: IC50 [M] (ProliFiler-140), NALM-6 (Blood)) was 2.5e-09 M, the IC50 (read-out: IC50 [M] (ProliFiler-140), NCI-H82 (Lung)) was 8.78e-08 M and the IC50 (read-out: IC50 [M] (ProliFiler-140), NCI-H292 (Lung)) was 3.77e-08 M. For the same compound, the IC50 (read-out: IC50 [M] (ProliFiler-140), NCI-H838 (Lung)) was 7.44e-08 M, the IC50 (read-out: IC50 [M] (ProliFiler-140), NCI-H1048 (Lung)) was 3.97e-09 M and the IC50 (read-out: IC50 [M] (ProliFiler-140), NCI-H1563 (Lung)) was 1.14e-07 M. For the same compound, the IC50 (read-out: IC50 [M] (ProliFiler-140), NCI-H1573 (Lung)) was 8.97e-08 M, the IC50 (read-out: IC50 [M] (ProliFiler-140), NCI-H1581 (Lung)) was 4.7e-08 M and the IC50 (read-out: IC50 [M] (ProliFiler-140), NCI-H1703 (Lung)) was 5.11e-08 M. It also gave an IC50 (read-out: IC50 [M] (ProliFiler-140), NCI-H2110 (Lung)) of 1.81e-08 M, an IC50 (read-out: IC50 [M] (ProliFiler-140), NCI-H2286 (Lung)) of 1.67e-08 M and an IC50 (read-out: IC50 [M] (ProliFiler-140), NCI-N87 (Stomach)) of 7.55e-08 M. It also gave an IC50 (read-out: IC50 [M] (ProliFiler-140), OCI-AML3 (Blood)) of 1.32e-08 M, an IC50 (read-out: IC50 [M] (ProliFiler-140), OCI-AML5 (Blood)) of 5.98e-09 M and an IC50 (read-out: IC50 [M] (ProliFiler-140), OCI-LY19 (Blood)) of 2.8e-09 M. For the same compound, the IC50 (read-out: IC50 [M] (ProliFiler-140), OPM-2 (Blood)) was 2.6e-08 M, the IC50 (read-out: IC50 [M] (ProliFiler-140), OV56 (Ovary)) was 7.2e-08 M and the IC50 (read-out: IC50 [M] (ProliFiler-140), OVCAR-3 (Ovary)) was 7.88e-08 M. The IC50 (read-out: IC50 [M] (ProliFiler-140), OVK18 (Ovary)) was 4.6e-08 M, the IC50 (read-out: IC50 [M] (ProliFiler-140), P31/FUJ (Blood)) was 2.25e-08 M and the IC50 (read-out: IC50 [M] (ProliFiler-140), PC3 (Prostate)) was 4e-08 M. It also gave an IC50 (read-out: IC50 [M] (ProliFiler-140), PC-9 (Lung)) of 1.41e-08 M, an IC50 (read-out: IC50 [M] (ProliFiler-140), RERF-LC-Ad2 (Lung)) of 1.42e-07 M and an IC50 (read-out: IC50 [M] (ProliFiler-140), RKO (Colon)) of 2.1e-08 M. It also gave an IC50 (read-out: IC50 [M] (ProliFiler-140), SCH (Stomach)) of 1.52e-08 M, an IC50 (read-out: IC50 [M] (ProliFiler-140), SCLC-21H (Lung)) of 2.6e-08 M and an IC50 (read-out: IC50 [M] (ProliFiler-140), SK-ES-1 (Bone)) of 2.7e-09 M. The IC50 (read-out: IC50 [M] (ProliFiler-140), SK-MEL-3 (Skin)) was 1.55e-07 M, the IC50 (read-out: IC50 [M] (ProliFiler-140), SK-N-MC (Brain)) was 1.61e-09 M and the IC50 (read-out: IC50 [M] (ProliFiler-140), SK-N-SH (Brain)) was 1.15e-07 M. For the same compound, the IC50 (read-out: IC50 [M] (ProliFiler-140), SK-OV3 (Ovary)) was 3.7e-08 M, the IC50 (read-out: IC50 [M] (ProliFiler-140), SNU-1 (Stomach)) was 2.27e-08 M and the IC50 (read-out: IC50 [M] (ProliFiler-140), SNU-216 (Stomach)) was 9.2e-08 M. For the same compound, the IC50 (read-out: IC50 [M] (ProliFiler-140), SU-DHL-5 (Blood)) was 2.55e-09 M, the IC50 (read-out: IC50 [M] (ProliFiler-140), SW480 (Colon)) was 5.5e-08 M and the IC50 (read-out: IC50 [M] (ProliFiler-140), SW-1783 (Brain)) was 4.8e-08 M. The IC50 (read-out: IC50 [M] (ProliFiler-140), Saos-2 EC (Bone)) was 6.6e-08 M, the IC50 (read-out: IC50 [M] (ProliFiler-140), T98G (Brain)) was 8.1e-08 M and the IC50 (read-out: IC50 [M] (ProliFiler-140), T-47D (Breast)) was 9.75e-08 M. The IC50 (read-out: IC50 [M] (ProliFiler-140), U118MG (Brain)) was 1.9e-07 M, the IC50 (read-out: IC50 [M] (ProliFiler-140), U251MG (Brain)) was 1.18e-07 M and the IC50 (read-out: IC50 [M] (ProliFiler-140), U-266 (Blood)) was 9.4e-09 M. For the same compound, the IC50 (read-out: antiproliferative IC50 range, range over 140 cell lines) was 1e-09 to 1e-07 M and the Reductive Activation Index (span over ProliFiler-140 cell lines) was “up to 30 fold”.
